Measured values reported in article PMC9841523 (Journal of Medicinal Chemistry, 2022).
“Also recorded” adds a separate entry of the source. Read-outs that look alike come from different tables or passages of the source.

What was measured:
Candida albicans = conditions: 10 strains of yeast Candida albicans; cited from earlier work
[1] = test system: AKT S473 phosphorylation (mTORC2); test: AlphaLISA/MSD analysis of AKT phosphorylation in MDA-MB-468 cells; format: cell-based; conditions: MDA-MB-468 cells, read-out: pAKT IC50
Description: (§1) Cell culture and reagents. Cells were obtained from ATCC, grown in appropriate medium supplemented with 10% fetal bovine serum and 1% penicillin/streptomycin and maintained at 37 °C in a humidified incubator at 5% CO 2.
(§2) AlphaLISA and MesoScale Discovery (MSD) analysis of 4EBP1, S6K and AKT phosphorylation. mTOR substrate phosphorylation in MDA-MB-468 cells was assayed using AlphaLISA SureFire Ultra kits for p4EBP1 Thr37/46, p-P70S6K Thr389 and p-AKT1/2/3 Ser473 (PerkinElmer), and MSD Multi-Array Assay Systems for Phospho-4EBP1 (Thr37/46) and Phospho-AKT (Ser473) (MSD). Cells were seeded at 25,000 cells per well and exposed the next day to serial three-fold dilutions of compounds in complete medium with 0.1% dimethylsulfoxide (DMSO). After indicated incubation times, cells were lysed and AlphaLISA or MSD performed according to the manufacturers’ protocols. Samples were read using an EnVision Multilabel Plate Reader (PerkinElmer) using standard AlphaLISA settings or using an MSD plate reader. Data were plotted as a function of logM [compound] with a sigmoidal concentration response (variable slope) model fitted to the data to estimate the inhibitor half-maximum effective concentration (EC 50) in Prism 7 (GraphPad). Alternatively, results were analyzed as percentage of control in which 0% was set as signal from 1 μM Torin1 and 100% was set as the mean of DMSO wells on each plate, and inhibitor EC 50 was estimated as described

p-P70S6K Thr389 = test: AlphaLISA/MSD analysis of S6K phosphorylation in MDA-MB-468 cells; format: cell-based; conditions: MDA-MB-468 cells, read-out: pS6K IC50
Description: as §1, §2

[2] = test system: 4EBP1 T37/T46 phosphorylation (mTORC1); test: AlphaLISA/MSD analysis of 4EBP1 phosphorylation in MDA-MB-468 cells; format: cell-based; conditions: for IC50: MDA-MB-468 cells, read-out: p4EBP1 IC50
Description: as §1, §2

tumor p4EBP1 = test: Tumor PD after a single dose in the MCF-7 CDX model; format: in vivo, mice; conditions: MCF-7 CDX
FKBP12 = target: T1, FKBP12 (Homo sapiens, UniProt P62942); test: FKBP12 binding affinity, fluorescent probe displacement assay
T1 construct: Proteros biostructures GmbH (ran the assay)
Description: same conditions, with 6 nM fluorescent probe present. 50 nL compound in DMSO was added to
11 different concentrations of compound with a 3-fold dilution factor were tested. After a 6 h incubation at room temperature acceptor fluorescence was read on a plate reader.
displacement) were calculated using standard fitting algorithms. The reporter probe is used at a concentration reflecting the tenfold concentration of its own Kd (probe) value. Thus, according to the Cheng Prusoff equation, the Kd value can be calculated with Kd = IC 50 / (1 + (([10 x Kd probe]) / [Kd probe]) = IC 50 / 11.
TR–FRET ternary complex assay. Assay was performed by Thermo Fisher Scientific, using a modification of a previously described protocol. 1 A homogeneous assay mixture was prepared
Thermo Fisher Scientific catalog no. A15112) in 50 mM HEPES pH 7.5, 0.01% polysorbate 20, 1 mM EGTA and 10 mM MnCl 2. Compounds were diluted in DMSO, and assay was initiated by mixing 160 nl of compound with 16 μL of assay mixture, resulting in a final DMSO
concentration of 1%. Reactions were mixed for 30 s on an orbital shaker and incubated for 1 h at

NCI-H2122 NSCLC CDX = NCI-H2122 NSCLC CDX model; format: in vivo; conditions: RMC-6272 10 mg/kg ip once weekly; sotorasib 100 mg/kg po qd; single agents or combination
Description: groups when mean tumor volume reached 400–600 mm 3. Tumor and plasma samples were collected for PK and PD analysis at indicated time points after a single dose of indicated […]
doses. Everolimus was formulated in v/v/v/, 30/5/65 Propylene glycol/Tween 80/H 2O.
NCI-H2122 xenograft studies. Female Balb/c nude mice (Beijing V.R Biotechnology Co. […]
per inoculation. When mean tumor volume reached between 150–200 mm 3, mice were […]
Transcutol/Solutol HS 15/H 2O. Sotorasib (AMG 510) was administered by oral gavage at 100 mg/kg daily and formulated in 2% (w/v) HPMC E-50, 0.5% Tween 80 in 50 mM sodium citrate […]
In vivo pharmacodynamics. Snap frozen tumors collected were homogenized with MSD complete lysis buffer (as prepared according to Meso Scale Discovery kit protocol) using PreCellys Bead Shaker (Bertin Instruments) according to manufacturer's protocol. Phospho-4E-BP1(Thr37/46) Whole Cell Lysate Kit (Meso Scale Discovery) was used to quantify phosphorylation of 4E-BP1 in the tumors according to manufacturer's protocol.
Expression and purification of FKBP12, FRB domain, and RHEB-GTPγS. DNA pET28

T1 sequence (P62942 whole entry): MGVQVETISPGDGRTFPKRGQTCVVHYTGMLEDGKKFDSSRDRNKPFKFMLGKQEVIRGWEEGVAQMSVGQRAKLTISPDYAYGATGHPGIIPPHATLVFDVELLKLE

Compound	IC50 ([1]; Homo sapiens) [nM]	IC50 (p-P70S6K Thr389; Homo sapiens) [nM]	IC50 ([2]; Homo sapiens) [nM]	also measured
CO[C@H]1C[C@@H]2CC[C@@H](C)[C@@](O)(O2)C(=O)C(=O)N2CCCC[C@H]2C(=O)O[C@H]([C@H](C)C[C@@H]2CC[C@@H](O)[C@H](OC)C2)CC(=O)[C@H](C)/C=C(\C)[C@@H](O)[C@@H](OC)C(=O)[C@H](C)C[C@H](C)/C=C/C=C/C=C/1C [compound 1, Rapamycin, reference compound]	> 1000			minimum inhibitory concentration (Candida albicans): 0.02 to 0.2 µg/mL
CO[C@H]1C[C@@H]2CC[C@@H](C)[C@@](O)(O2)C(=O)C(=O)N2CCCC[C@H]2C(=O)O[C@H]([C@H](C)C[C@@H]2CC[C@@H](OCCO)[C@H](OC)C2)CC(=O)[C@H](C)/C=C(\C)[C@@H](O)[C@@H](OC)C(=O)[C@H](C)C[C@H](C)/C=C/C=C/C=C/1C [compound 4, everolimus, reference compound]	> 1000	0.07	> 1000	effect on tumor p4EBP1 levels (tumor p4EBP1; single dose (38, 40 ip; everolimus 5 mg/kg oral)): minimal effect
CC(C)n1nc(-c2ccc3oc(N)nc3c2)c2c(N)ncnc21 [compound 5, sapanisertib, reference compound]	1.8			inhibition of tumor p4EBP1 (tumor p4EBP1; 4 h after intraperitoneal dosing at 1 mg/kg): > 80%
CO[C@H]1C[C@@H]2CC[C@@H](C)[C@@](O)(O2)C(=O)C(=O)N2CCCC[C@H]2C(=O)O[C@H]([C@H](C)C[C@@H]2CC[C@@H](O)[C@H](OC)C2)C[C@@H](O)[C@H](C)/C=C(\C)[C@@H](O)[C@@H](OC)C(=O)[C@H](C)C[C@H](C)/C=C/C=C/C=C/1C [compound 11, C32-hydroxy rapamycin]				Kd (FKBP12): 13.3 nM
CO[C@H]1C[C@@H]2CC[C@@H](C)[C@@](O)(O2)C(=O)C(=O)N2CCCC[C@H]2C(=O)O[C@H]([C@H](C)C[C@@H]2CC[C@@H](OCCCCc3cn(CCOCCOCCOCCOCCOCCC(=O)NCCCCn4nc(-c5ccc6oc(N)nc6c5)c5c(N)ncnc54)nn3)[C@H](OC)C2)CC(=O)[C@H](C)/C=C(\C)[C@@H](O)[C@@H](OC)C(=O)[C@H](C)C[C@H](C)/C=C/C=C/C=C/1C [compound 28]	33	0.37	25	
CO[C@H]1C[C@@H]2CC[C@@H](C)[C@@](O)(O2)C(=O)C(=O)N2CCCC[C@H]2C(=O)O[C@H]([C@H](C)C[C@@H]2CC[C@@H](OC(=O)NCCOCCOCCOCCOCCOCCOCCOCCOCCC(=O)NCCCCn3nc(-c4ccc5oc(N)nc5c4)c4c(N)ncnc43)[C@H](OC)C2)CC(=O)[C@H](C)/C=C(\C)[C@@H](O)[C@@H](OC)C(=O)[C@H](C)C[C@H](C)/C=C/C=C/C=C/1C [compound 29]	3.6	0.61	1.7	
CO[C@H]1C[C@@H]2CC[C@@H](C)[C@@](O)(O2)C(=O)C(=O)N2CCCC[C@H]2C(=O)O[C@H]([C@H](C)C[C@@H]2CC[C@@H](OC(=O)NCCOCCOCCOCCOCCOCCOCCOCCOCCC(=O)N3CCc4cc(Cn5nc(-c6ccc7oc(N)nc7c6)c6c(N)ncnc65)ccc4C3)[C@H](OC)C2)CC(=O)[C@H](C)/C=C(\C)[C@@H](O)[C@@H](OC)C(=O)[C@H](C)C[C@H](C)/C=C/C=C/C=C/1C [compound 30]	4.7	0.19	0.42	
CO[C@H]1C[C@@H]2CC[C@@H](C)[C@@](O)(O2)C(=O)C(=O)N2CCCC[C@H]2C(=O)O[C@H]([C@H](C)C[C@@H]2CC[C@@H](OC(=O)NCCOCCOCCOCCOCCOCCOCCOCCOCCC(=O)NCCS(=O)(=O)c3ccc(C(=O)N4CCOc5ccc(-c6ccc(N)nc6)cc5C4)c(C)c3F)[C@H](OC)C2)CC(=O)[C@H](C)/C=C(\C)[C@@H](O)[C@@H](OC)C(=O)[C@H](C)C[C@H](C)/C=C/C=C/C=C/1C [compound 31]	2.9	0.23	0.7	
CO[C@@H](C[C@@H]1CC[C@@H](C)[C@](O)(C(=O)C(=O)N2CCCC[C@H]2C(=O)O)O1)/C(C)=C/C=C/C=C/[C@@H](C)C[C@@H](C)C(=O)[C@H](OC)[C@H](O)/C(C)=C/[C@@H](C)C(=O)/C=C\[C@H](C)C[C@@H]1CC[C@@H](OCCCCc2cn(CCOCCOCCOCCOCCOCCOCCOCCOCCC(=O)NCCCCn3nc(-c4ccc5oc(N)nc5c4)c4c(N)ncnc43)nn2)[C@H](OC)C1 [compound 32]	450	59	180	
CO[C@H]1C[C@@H]2CC[C@@H](C)[C@@](O)(O2)C(=O)C(=O)N2CCCC[C@H]2C(=O)O/C([C@H](C)C[C@@H]2CC[C@@H](OC(=O)NCCOCCOCCOCCOCCOCCOCCOCCOCCC(=O)N3CCc4cc(Cn5nc(-c6ccc7oc(N)nc7c6)c6c(N)ncnc65)ccc4C3)[C@H](OC)C2)=C/C(=O)[C@H](C)/C=C(\C)[C@@H](O)[C@@H](OC)C(=O)[C@H](C)C[C@H](C)/C=C/C=C/C=C/1C [compound 33]	> 1000	80	320	
C=CC(=O)N1CCN(c2nc(=O)n(-c3c(C)ccnc3C(C)C)c3nc(-c4c(O)cccc4F)c(F)cc23)[C@@H](C)C1 [sotorasib]				antitumor activity (tumor regressions) in NCI-H2122 CDX model (NCI-H2122 NSCLC CDX): Neither; also recorded: only modest inhibition of tumor growth
BGT226 [compound 7, reference compound]				IC50 (p-P70S6K Thr389): 0.27 nM; IC50 [2]: 4.4 nM; selectivity (mTORC1/mTORC2 ratio) ([2]; pAKT IC50 versus p4EBP1 IC50, MDA-MB-468 cells): 0.3; IC50 [1]: 1.4 nM
